Results from PubChem BioAssay AID1963858 (Molecular Pharmacology Branch, DTP, NCI, 2024).

System: HOP-62 multicell spheroids with HUVEC/MSC, viability
Experiment: Anticancer human tumor HOP-62 cell line growth inhibition [KRAS2];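 further: viability read after a week of compound exposure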;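 on viability, T/C: 100% = DMSO vehicle-treated spheroids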
Conditions: for IC50: curve of first compound; for viability, T/C: stronger effect = lower value
Procedure, shortened: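 KRAS-mutant tumor cells were grown as spheroids with HUVEC endothelial cells and human MSCs as stroma. Targeted agents were tested alone and with KRAS pathway inhibitors. Doses started at or near clinical Cmax, or 10 microM, descending half-log.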

[1] = second compound 0.0316 µM, first compound 0.0316 µM
[2] = second compound 0.0316 µM, first compound 0.1 µM
[3] = second compound 0.0316 µM, first compound 0.316 µM
[4] = second compound 0.0316 µM, first compound 1 µM
[5] = second compound 0.0316 µM, first compound 3.16 µM
[6] = second compound 0.0316 µM, first compound 10 µM
[7] = second compound 0.1 µM, first compound 0.0316 µM
[8] = second compound 0.1 µM, first compound 0.1 µM
[9] = second compound 0.1 µM, first compound 0.316 µM
[10] = second compound 0.1 µM, first compound 1 µM
[11] = second compound 0.1 µM, first compound 3.16 µM
[12] = second compound 0.1 µM, first compound 10 µM
[13] = second compound 0.316 µM, first compound 0.0316 µM
[14] = second compound 0.316 µM, first compound 0.1 µM
[15] = second compound 0.316 µM, first compound 0.316 µM
[16] = second compound 0.316 µM, first compound 1 µM
[17] = second compound 0.316 µM, first compound 3.16 µM
[18] = second compound 0.316 µM, first compound 10 µM
[19] = second compound 1 µM, first compound 0.0316 µM
[20] = second compound 1 µM, first compound 0.1 µM
[21] = second compound 1 µM, first compound 0.316 µM
[22] = second compound 1 µM, first compound 1 µM
[23] = second compound 1 µM, first compound 3.16 µM
[24] = second compound 1 µM, first compound 10 µM
[25] = second compound 3.16 µM, first compound 0.0316 µM
[26] = second compound 3.16 µM, first compound 0.1 µM
[27] = second compound 3.16 µM, first compound 0.316 µM
[28] = second compound 3.16 µM, first compound 1 µM
[29] = second compound 3.16 µM, first compound 3.16 µM
[30] = second compound 3.16 µM, first compound 10 µM

Structure (SMILES) | IC50 (second compound 0.0316 µM) [µM] | IC50 (second compound 0.1 µM) [µM] | IC50 (second compound 0.316 µM) [µM] | IC50 (second compound 1 µM) [µM] | IC50 (second compound 3.16 µM) [µM] | viability, T/C [1] [%] | viability, T/C [2] [%] | viability, T/C [3] [%] | viability, T/C [4] [%] | viability, T/C [5] [%] | viability, T/C [6] [%] | viability, T/C [7] [%] | viability, T/C [8] [%] | viability, T/C [9] [%] | viability, T/C [10] [%] | viability, T/C [11] [%] | viability, T/C [12] [%] | viability, T/C [13] [%] | viability, T/C [14] [%] | viability, T/C [15] [%] | other results
CC1OCC2(CCN(c3cnc(Sc4ccnc(N)c4Cl)c(N)n3)CC2)C1N (stereo not given) + C=CC(=O)N1CCN(c2nc(OCC3CCCN3C)nc3c2CCN(c2cccc4cccc(C)c24)C3)CC1CC#N | 0.0697 | 0.0368 | < 0.0316 | < 0.0316 | < 0.0316 | 54.3 | 49.1 | 27 | 19.5 | 11.9 | 12.7 | 53.5 | 29.1 | 19.9 | 12.8 | 11.5 | 12.2 | 40 | 30.7 | 13.9 | viability, T/C [16]: 10.5%; viability, T/C [17]: 10.2%; viability, T/C [18]: 10.6%; viability, T/C [19]: 24%; viability, T/C [20]: 16%; viability, T/C [21]: 11.8%; viability, T/C [22]: 8.98%; viability, T/C [23]: 7.63%; viability, T/C [24]: 7.61%; viability, T/C [25]: 4.76%; viability, T/C [26]: 1.76%; viability, T/C [27]: 1.12%; viability, T/C [28]: 0.88%; viability, T/C [29]: 0.72%; viability, T/C [30]: 0.51%
Cn1nccc1Nc1nccc(-c2cc3c(s2)C(C)(C)N(CCN2CCOCC2)C3=O)n1 + C=CC(=O)N1CCN(c2nc(OCC3CCCN3C)nc3c2CCN(c2cccc4cccc(C)c24)C3)CC1CC#N | 0.265 | 0.144 | < 0.0316 | < 0.0316 | < 0.0316 | 84.1 | 68 | 50.4 | 20.3 | 22.4 | 22.7 | 58.2 | 53 | 39.3 | 17.1 | 17.2 | 17 | 45.3 | 39.2 | 18.1 | viability, T/C [16]: 18%; viability, T/C [17]: 13.6%; viability, T/C [18]: 16%; viability, T/C [19]: 27.7%; viability, T/C [20]: 30.3%; viability, T/C [21]: 13.1%; viability, T/C [22]: 12.3%; viability, T/C [23]: 11.3%; viability, T/C [24]: 12.6%; viability, T/C [25]: 2.34%; viability, T/C [26]: 0.65%; viability, T/C [27]: 1.84%; viability, T/C [28]: 4.87%; viability, T/C [29]: 4.21%; viability, T/C [30]: 0.35%
